Measured values as given in patent US20250092064A1, “BENZOTRIAZOLE COMPOUND” (DAIICHI SANKYO COMPANY, LIMITED, priority 2022, published 2025).

Columns and labels:
[1] = test system: NQO1 activity in Hepa1c1c7 cells; assay: NAD(P)H: quinone oxidoreductase-1 (NQO1) enzyme induction assay (in vitro); format: cell-based, mouse; settings: Mus musculus, Hepa-1c1c7, NQO1 activity with 400 nM test compound as a ratio from the base without compound, about 48 hr
Procedure: The NQO1 assay was performed based on a previous report (Methods in Enzymology 2004; 382: 243-258). Hepa1c1c7 cells (mouse hepatocyte cell line, ATCC, cat. no. CRL-2026) were cultured in D-MEM medium containing 10% FBS and 1% penicillin/streptomycin (5% CO2, 37° C.), and seeded into 96-well plates (Corning REF. 353072) at 1×10^4 cells/well. A portion of the wells were prepared with medium only for background measurement without seeding cells. The next day, 400 nM of the test compound (0.004% of the final concentration in DMSO) dissolved in DMSO was added thereto, and the wells were incubated for about 48 hr. A well without adding the test compound was prepared for base activity assay in part. […] After the medium was removed, 50 μL of the cell lysate was added and incubated at 37° C. for 10 minutes, followed by shaking at room temperature for 10 minutes. 200 μL of reaction solution was added thereto, and allowed to stand for 5 minutes at room temperature. 50 μL of the stop solution was added thereto, and absorbance was measured at 610 nm on a SpectraMax PLUS384 (Molecular devices) or […] Pharma Biomedical). The test results were analyzed in Excel, and the NQO1 activity upon addition of 400 nM of test compound was calculated as a ratio from the base without the compound. NQO1 activity ratio when test compound is added=(absorbance when test compound is added-absorbance of medium only)/(absorbance without addition of compound-absorbance of medium only) [numerical formula 2] The results of each test compound in this test are shown in the following Table 2 (A:5<NQO1 activity ratio, B:3<NQO1 activity ratio≤5).

[2] = biological target: binding between Nrf2 and Keap1 (Homo sapiens (Human), UniProt Q14145); assay: FP assay (in vitro): inhibition of Nrf2-Keap1 binding by fluorescence polarization; settings: GST-fused human Keap1 (325-642) 20 nM, FITC-labeled Nrf2 peptide 10 nM, 2 hr at room temperature
binding between Nrf2 and Keap1, sequence (Q14145 325-624 limits assumed): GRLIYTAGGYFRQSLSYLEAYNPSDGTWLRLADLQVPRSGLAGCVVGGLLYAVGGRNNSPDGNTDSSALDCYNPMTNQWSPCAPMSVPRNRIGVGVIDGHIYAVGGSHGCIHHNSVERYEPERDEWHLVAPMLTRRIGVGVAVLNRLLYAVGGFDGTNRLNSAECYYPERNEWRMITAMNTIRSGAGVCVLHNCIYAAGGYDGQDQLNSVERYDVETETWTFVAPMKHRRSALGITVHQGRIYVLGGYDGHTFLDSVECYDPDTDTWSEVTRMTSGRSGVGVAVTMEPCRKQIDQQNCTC

Q: With `CC[C@@H]1CN(Cc2cc([C@@H](CC(=O)O)c3ccc4c(nnn4C)c3C)cc3ccsc23)C(C)c2nc(O)ccc2O1` (relative stereo) [Example 79, (3R)-3-(1,4-Dimethyl-1H-benzotriazol-5-yl)-3-(7-{[(2R,5R*)-2-ethyl-7-hydroxy-5-methyl-2,3-dihydropyrido[2,3-f][1,4]oxazepin-4(5H)-yl]methyl}-1-benzothiophen-5-yl)propanoic acid] as the molecule, how does the fold induction at 0.4 µM [1] read?
A: The fold induction at 0.4 µM was > 5.

Q: For `CC[C@@H]1Cc2ncccc2S(=O)(=O)N(Cc2cc([C@@H](CC(=O)O)c3ccc4c(nnn4C)c3C)cc3c2CCC3)C1` (single isomer, unassigned) [Example 27, (3R)-3-(1,4-Dimethyl-1H-benzotriazol-5-yl)-3-(7-{[(4S*)-4-ethyl-1,1-dioxido-4,5-dihydropyrido[2,3-f][1,2]thiazepin-2(3H)-yl]methyl}-2,3-dihydro-1H-inden-5-yl)propanoic acid], which IC50 [2] is on record?
A: Its IC50 is ≤ 10 nM.

Q: And the fold induction at 0.4 µM [1]?
A: The fold induction at 0.4 µM was > 5.

Q: `CC[C@@H]1Cc2ccccc2S(=O)(=O)N(Cc2cc([C@@H](CC(=O)O)c3ccc4c(nnn4C)c3C)cc3c2CCC3)C1` (single isomer, unassigned) [Example 28, (3R)-3-(1,4-Dimethyl-1H-benzotriazol-5-yl)-3-(7-{[(4S*)-4-ethyl-1,1-dioxido-4,5-dihydro-1,2-benzothiazepin-2(3H)-yl]methyl}-2,3-dihydro-1H-inden-5-yl)propanoic acid] was tested. Which IC50 [2] did it give?
A: The IC50 was ≤ 10 nM.

Q: And the fold induction at 0.4 µM [1]?
A: The fold induction at 0.4 µM was > 5.

Q: Which IC50 [2] does the source give for `CC[C@@H]1CN(Cc2cc(C(CC(=O)O)c3cc(Cl)c4c(nnn4C)c3C)cc3c2CCC3)[C@@H](C)c2ncccc2O1` (single isomer, unassigned) [Example 71, (3R*)-3-(7-Chloro-1,4-dimethyl-1H-benzotriazol-5-yl)-3-(7-{[(2R,5S)-2-ethyl-5-methyl-2,3-dihydropyrido[2,3-f][1,4]oxazepin-4(5H)-yl]methyl}-2,3-dihydro-1H-inden-5-yl)propanoic acid] here?
A: The IC50 was ≤ 10 nM.

Q: What about the fold induction at 0.4 µM [1] of the same molecule?
A: Its fold induction at 0.4 µM is > 5.

Q: `CC[C@@H]1CN(Cc2cc(C(CC(=O)O)c3cc(Cl)c4c(nnn4C)c3C)cc3c2CCC3)[C@@H](C)c2ncccc2O1` (single isomer, unassigned) [Example 72, (3S*)-3-(7-Chloro-1,4-dimethyl-1H-benzotriazol-5-yl)-3-(7-{[(2R,5S)-2-ethyl-5-methyl-2,3-dihydropyrido[2,3-f][1, 4]oxazepin-4(5H)-yl]methyl}-2,3-dihydro-1H-inden-5-yl)propanoic acid] was tested. Which IC50 [2] did it give?
A: The IC50 was ≤ 10 nM.

Q: Which IC50 [2] does the source give for `CCC1c2ncccc2O[C@H](CC)CN1Cc1cc([C@H](CC(=O)O)c2ccc3c(nnn3C)c2C)cc2ccsc12` (single isomer, unassigned) [Example 76, (3S)-3-(7-{[(2R,5R*)-2,5-Diethyl-2,3-dihydropyrido[2,3-f][1,4]oxazepin-4(5H)-yl]methyl}-1-benzothiophen-5-yl)-3-(1,4-dimethyl-1H-benzotriazol-5-yl)propanoic acid] here?
A: The IC50 was ≤ 10 nM.

Q: What about the fold induction at 0.4 µM [1] of the same molecule?
A: Its fold induction at 0.4 µM is > 5.

Q: `CCC1c2ncccc2O[C@H](CC)CN1Cc1cc([C@H](CC(=O)O)c2ccc3c(nnn3C)c2C)cc2ccsc12` (single isomer, unassigned) [Example 77, (3S)-3-(7-{[(2R,5S*)-2,5-Diethyl-2,3-dihydropyrido[2,3-f][1,4]oxazepin-4(5H)-yl]methyl}-1-benzothiophen-5-yl)-3-(1,4-dimethyl-1H-benzotriazol-5-yl)propanoic acid] was tested. Which IC50 [2] did it give?
A: The IC50 was ≤ 10 nM.

Q: Which results are given for `CC[C@@H]1CN(Cc2cc([C@@H](CC(=O)O)c3ccc4c(nnn4C)c3C)cc3ccsc23)C(C)c2nc(O)ccc2O1` (single isomer, unassigned) [Example 78, (3R)-3-(1,4-Dimethyl-1H-benzotriazol-5-yl)-3-(7-{[(2R,5S*)-2-ethyl-7-hydroxy-5-methyl-2,3-dihydropyrido[2,3-f][1,4]oxazepin-4(5H)-yl]methyl}-1-benzothiophen-5-yl)propanoic acid]?
A: IC50 [2]: 10 to 30 nM; fold induction at 0.4 µM [1]: > 5

Q: Which fold induction at 0.4 µM [1] does the source give for `CC[C@@H]1CN(Cc2cc([C@@H](CC(=O)O)c3cnc4c(nnn4C)c3C)cc3ccsc23)C(C)c2nc(O)ccc2O1` (single isomer, unassigned) [Example 81, (3R)-3-(3,7-Dimethyl-3H-[1,2,3]triazolo[4,5-b]pyridin-6-yl)-3-(7-{[(2R,5S*)-2-ethyl-7-hydroxy-5-methyl-2,3-dihydropyrido[2,3-f][1,4]oxazepin-4(5H)-yl]methyl}-1-benzothiophen-5-yl)propanoic acid] here?
A: Its fold induction at 0.4 µM is 3 to 5.

Q: Which results are given for `Cc1c([C@H](CC(=O)O)c2cc(CN3C[C@@H](C4CC4)Oc4ccc(O)nc4C3C)c3sccc3c2)ccc2c1nnn2C` (single isomer, unassigned) [Example 83, (3R)-3-(7-{[(2R,5S*)-2-Cyclopropyl-7-hydroxy-5-methyl-2,3-dihydropyrido[2,3-f][1,4]oxazepin-4(5H)-yl]methyl}-1-benzothiophen-5-yl)-3-(1,4-dimethyl-1H-benzotriazol-5-yl)propanoic acid]?
A: IC50 [2]: 30 to 100 nM; fold induction at 0.4 µM [1]: > 5

Q: `Cc1c([C@H](CC(=O)O)c2cc(CN3C[C@@H](C4CC4)Oc4ccc(O)nc4C3C)c3sccc3c2)ccc2c1nnn2C` (single isomer, unassigned) [Example 84, (3R)-3-(7-{[(2R,5R*)-2-Cyclopropyl-7-hydroxy-5-methyl-2,3-dihydropyrido[2,3-f][1,4]oxazepin-4(5H)-yl]methyl}-1-benzothiophen-5-yl)-3-(1,4-dimethyl-1H-benzotriazol-5-yl)propanoic acid] was tested. Which IC50 [2] did it give?
A: The IC50 was 30 to 100 nM.

Q: With `Cc1c([C@H](CC(=O)O)c2cc(CN3C[C@@H](C4CC4)Oc4ccc(O)nc4C3C)c3sccc3c2)cnc2c1nnn2C` (single isomer, unassigned) [Example 85, (3R)-3-(7-{[(2R,5R*)-2-Cyclopropyl-7-hydroxy-5-methyl-2,3-dihydropyrido[2,3-f][1,4]oxazepin-4(5H)-yl]methyl}-1-benzothiophen-5-yl)-3-(3,7-dimethyl-3H-[1,2,3]triazolo[4,5-b]pyridin-6-yl)propanoic acid] as the molecule, how does the IC50 [2] read?
A: Its IC50 is 10 to 30 nM.

Q: What about the fold induction at 0.4 µM [1] of the same molecule?
A: The fold induction at 0.4 µM was > 5.

Q: Which fold induction at 0.4 µM [1] does the source give for `Cc1c([C@H](CC(=O)O)c2cc(CN3CC4(CC4)Oc4ccc(O)nc4C3C)c3sccc3c2)ccc2c1nnn2C` (single isomer, unassigned) [Example 87, (3R)-3-(1,4-Dimethyl-1H-benzotriazol-5-yl)-3-(7-{[(5′S*)-7′-hydroxy-5′-methyl-3′H-spiro[cyclopropane-1,2′-pyrido[2,3-f][1,4]oxazepin]-4′(5′H)-yl]methyl}-1-benzothiophen-5-yl)propanoic acid] here?
A: The fold induction at 0.4 µM was > 5.

Q: Which IC50 [2] does the source give for `CC[C@@H]1CN(Cc2cc(C(CC(=O)O)c3ccc4c(nnn4C)c3C)cc3c2CCC3)S(=O)(=O)c2ccc(Cl)cc2O1` (stereo partly drawn) [Example 15, 3-(7-{[(4R)-7-Chloro-4-ethyl-1,1-dioxido-3,4-dihydro-2H-5,1,2-benzoxathiazepin-2-yl]methyl}-2,3-dihydro-1H-inden-5-yl)-3-(1,4-dimethyl-1H-benzotriazol-5-yl)propanoic acid] here?
A: Its IC50 is 30 to 100 nM.

Q: How did the IC50 [2] turn out when `Cc1c(C(CC(=O)O)c2cc3c(c(CN4CC5(CCOCC5)Oc5ncccc5S4(=O)=O)c2)CCC3)ccc2c1nnn2C` (stereo not shown) [Example 33, 3-(1,4-Dimethyl-1H-benzotriazol-5-yl)-3-{7-[(1,1′-dioxido-2,3,5,6-tetrahydrospiro[pyran-4,4′-pyrido[2,3-b][1,4,5]oxathiazepine]-2′(3′H)-yl)methyl]-2,3-dihydro-1H-inden-5-yl}propanoic acid] was run?
A: Its IC50 is 30 to 100 nM.

Q: `Cc1c(C(CC(=O)O)c2cc3c(c(CN4CC5(CCC5)Oc5ncccc5S4(=O)=O)c2)CCC3)ccc2c1nnn2C` (stereo not shown) [Example 35, 3-(1,4-Dimethyl-1H-benzotriazol-5-yl)-3-{7-[(1,1′-dioxido-spiro[cyclobutane-1,4′-pyrido[2,3-b][1,4,5]oxathiazepine]-2′(3′H)-yl)methyl]-2,3-dihydro-1H-inden-5-yl}propanoic acid] was tested. Which IC50 [2] did it give?
A: The IC50 was 10 to 30 nM.

Q: `Cc1c(C(CC(=O)O)c2cc3c(c(CN4CC5(COC5)Oc5ncccc5S4(=O)=O)c2)CCC3)ccc2c1nnn2C` (stereo not shown) [Example 36, 3-(1,4-Dimethyl-1H-benzotriazol-5-yl)-3-{7-[(1,1′-dioxido-spiro[oxetane-3,4′-pyrido[2,3-b][1,4,5]oxathiazepine]-2′ (3′H)-yl)methyl]-2,3-dihydro-1H-inden-5-yl}propanoic acid] was tested. Which IC50 [2] did it give?
A: Its IC50 is 10 to 30 nM.

Q: With `CC[C@@H]1CN(Cc2cc([C@H](CC(=O)O)c3ccc4c(nnn4C)c3C)cc3ccsc23)[C@@H](C)c2ncccc2O1` [Example 62, (3S)-3-(1,4-Dimethyl-1H-benzotriazol-5-yl)-3-(7-{[(2R,5S)-2-ethyl-5-methyl-2,3-dihydropyrido[2,3-f][1,4]oxazepin-4(5H)-yl]methyl}-1-benzothiophen-5-yl)propanoic acid] as the molecule, how does the IC50 [2] read?
A: The IC50 was 10 to 30 nM.
